From article PMC4447598 (Annals of neurology, 2015)
Where “and” joins values, the source holds several entries; their conditions need not be identical. Equal entries are not always repeated.

How the values were obtained:
[1] = biological target: Pyk2 (Homo sapiens, UniProt Q14289); experiment: LanthaScreen Europium Kinase Binding Assay
[2] = system: Pyk2; experiment: Acute brain slice assay, p-Pyk2; assay type: cell-based, mouse
[3] = system: NR2B subunit of NMDA-type Glu receptors; experiment: Acute brain slice assay, pY-1472 NR2B immunoblot relative to total NR2B; assay type: cell-based, mouse
[4] = AZD0530 pharmacokinetics in mice; assay type: in vivo, mouse
[5] = system: Pyk2; experiment: Activated pPyk2 levels in brain of APP/PS1 and WT mice; assay type: in vivo, mouse
[6] = system: APP/PS1 transgenic mice; experiment: Morris water maze; assay type: in vivo, mouse
[7] = system: APP/PS1 transgenic mice; experiment: Novel object recognition; assay type: in vivo, mouse; settings: 5 mg/kg/d, 6 weeks treatment
[8] = system: APP/Aβ; experiment: APP metabolism and Aβ accumulation in brain of treated mice; assay type: in vivo, mouse; settings: 5 mg/kg/d
[9] = system: APP/PS1 transgenic mice; experiment: Glial reaction in cortex; assay type: in vivo, mouse; settings: 5 mg/kg/d, 7 weeks
[10] = system: APP/PS1 transgenic mice; experiment: Synapse density in dentate gyrus; assay type: in vivo, mouse; settings: 5 mg/kg/d, 7 weeks
[11] = system: Tau; experiment: Tau biochemistry and histology in 3xTg-AD mice; assay type: in vivo, mouse
[12] = Chronic; assay type: in vivo, beagle dogs
[13] = ref [27]; cited from earlier work
[14] = APP/PS1 mice, 5 mg/kg/d, 1-2 weeks treatment
[15] = APP/PS1 mice, 5 mg/kg/d, 3-5 weeks treatment
[16] = RIPA extracts of TBS-insoluble material, 5 mg/kg/d 40 days
[17] = RIPA-insoluble fractions, 5 mg/kg/d 40 days

Sequence of Pyk2 (Homo sapiens, UniProt Q14289) (Q14289 whole entry): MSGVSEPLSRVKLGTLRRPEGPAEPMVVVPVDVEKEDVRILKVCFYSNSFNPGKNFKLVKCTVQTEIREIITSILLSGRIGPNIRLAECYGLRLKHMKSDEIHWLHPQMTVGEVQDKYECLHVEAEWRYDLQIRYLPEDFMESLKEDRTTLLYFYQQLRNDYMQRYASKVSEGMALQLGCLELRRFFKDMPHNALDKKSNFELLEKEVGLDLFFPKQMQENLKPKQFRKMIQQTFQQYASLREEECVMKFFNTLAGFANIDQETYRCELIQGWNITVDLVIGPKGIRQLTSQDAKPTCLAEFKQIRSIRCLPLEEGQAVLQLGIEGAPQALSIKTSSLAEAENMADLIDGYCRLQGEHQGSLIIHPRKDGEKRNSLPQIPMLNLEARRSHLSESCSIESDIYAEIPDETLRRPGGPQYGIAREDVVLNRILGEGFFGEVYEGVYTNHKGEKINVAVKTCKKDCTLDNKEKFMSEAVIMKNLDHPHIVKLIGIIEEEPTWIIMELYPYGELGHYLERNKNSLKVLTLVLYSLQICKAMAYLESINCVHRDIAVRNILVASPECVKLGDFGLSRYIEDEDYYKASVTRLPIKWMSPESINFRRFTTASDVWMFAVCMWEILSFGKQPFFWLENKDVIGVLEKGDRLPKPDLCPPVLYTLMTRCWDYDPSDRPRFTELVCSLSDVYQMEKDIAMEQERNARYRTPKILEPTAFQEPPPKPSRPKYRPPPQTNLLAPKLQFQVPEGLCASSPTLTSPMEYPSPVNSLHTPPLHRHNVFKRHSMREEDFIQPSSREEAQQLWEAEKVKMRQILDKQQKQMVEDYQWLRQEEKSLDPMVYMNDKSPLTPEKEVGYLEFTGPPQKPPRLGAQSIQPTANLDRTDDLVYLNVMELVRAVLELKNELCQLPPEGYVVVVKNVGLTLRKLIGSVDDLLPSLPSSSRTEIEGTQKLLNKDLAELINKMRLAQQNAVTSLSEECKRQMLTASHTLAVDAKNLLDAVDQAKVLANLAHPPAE

SMILES: CN1CCN(CCOc2cc(OC3CCOCC3)c3c(Nc4c(Cl)ccc5c4OCO5)ncnc3c2)CC1 [AZD0530, N-(5-chloro-1,3-benzodioxol-4-yl)-7-[2-(4-methylpiperazin-1-yl)ethoxy]-5-(tetrahydro-2H-pyran-4-yloxy)quinazolin-4-amine]
- IC50 [1]: > 250 µM
- Pyk2 substrate binding ([1]; AZD0530 at concentrations up to 100 μM): unaffected
- basal Pyk2 activation ([2]; brain slices without Aβo): suppresses
- Aβo stimulation of Pyk2 activation ([2]; brain slices, 1 μM Aβo 30 min): blocks
- basal phosphorylation of NR2B ([3]; brain slices without Aβo): suppresses
- Aβo-induced phosphorylation of NR2B ([3]; brain slices, 1 μM Aβo 30 min): full blocks
- inhibition at 5 mg/kg/day ([4]; Mus musculus, po, read-out: expected inhibition of Fyn kinase activity in brain): ≥ 50%
- apparent brain half-life ([4]; mouse, 5 mg/kg/d for 3 days): 16 h
- peak brain level ([4]; mouse, 5 mg/kg/d oral b.i.d., 30-60 min after dosing, 5 mg/kg/day): 27 ng/g and 50 nM
- peak CSF level ([4]; mouse, 5 mg/kg/d, one pooled sample, 5 mg/kg/day): 7 ng/ml and 13 nM
- CSF level as % of brain level ([4]; mouse, 6 oral b.i.d. doses, 30-60 min after dosing): about 35%
- concentration at 12 h ([4]; mouse, CSF, oral, 5 mg/kg/day, trough CSF range calculated from multiple brain samples, 5 mg/kg/d): 3.1 ng/mL to 7.6 ng/mL and 5.8 nM to 14 nM
- half-life ([4]; mouse, brain, oral, 5 mg/kg/day, apparent brain half-life, 5 mg/kg/d for 3 days): ~16 h
- increase of p(Y402)Pyk2 in hippocampal CA1 and CA3 cell body layers (histology) ([5]; APP/PS1 mice, 5 mg/kg/d for 7 weeks): reversed by AZD0530 treatment
- pPyk2 level ([5]; WT mice): does not significantly alter pPyk2
- activated pPyk2 level (immunoblot), hippocampus ([5]; aged APP/PS1 mice, 5 mg/kg/d): reduces activated pPyk2 level to that of WT mice exposed to vehicle
- water maze performance ([6]; APP/PS1 mice, 2 mg/kg/d, 3-5 weeks treatment): fails to improve water maze performance
- impaired rate of acquisition during swims to a hidden platform [6, 14]: no improvement
- memory recall during 60 sec probe trial [6, 14]: no improvement
- latencies to the hidden platform (spatial learning) [6, 15]: eliminates the pre-existing transgenic deficit
- probe trial, preference for target quadrant [6, 15]: same strong preference for the target quadrant as do WT mice
- latencies to a hidden platform ([6]; WT mice, 5 mg/kg/d): not altered
- Novel Object Recognition performance [7]: performance equal to the WT mice
- APP/Aβ metabolism ([8]; 3xTg-AD mice, data not shown): no effect
- APP fragments, Aβ plaque and different Aβ species vs vehicle-treated transgenic mice ([8]; APP/PS1 mice, 7 weeks): no difference
- astrocytic reaction (GFAP) [9]: no significant change
- extent of microglial induction (Iba1) [9]: significantly reduced
- synapse density (PSD-95, SV2a puncta) ([10]; APP/PS1 transgenic mice): fully restores synaptic puncta to WT levels
- synapse density (PSD-95, SV2a puncta) ([10]; WT mice): does not alter synapse density
- human Tau transgene mRNA (qRT-PCR) ([11]; 3xTg-AD mice, 5 mg/kg/d, data not shown): not changed
- decrease of pTau pS396 vs control 3xTg [11, 16]: 53%
- decrease of total Tau vs control 3xTg [11, 16]: 74%
- decrease of insoluble human Tau [11, 17]: 56%
- decrease of insoluble total Tau [11, 17]: 41%
- NOAEL at 273 days ([12]; both, beagle, dog, in vivo, po): > 5 mg/kg/day
- body weight, hematological and coagulation parameters vs vehicle ([12]; dog, 0.5, 2 or 5 mg/kg/d, 273 days): no statistically significant difference
- tolerability ([12]; dog, 39 weeks oral gavage at 0.5, 2 and 5 mg/kg/day): tolerated at all dose levels tested
- abnormal measurement or pathology ([12]; dog, any group including 5 mg/kg/d, 273 days): No significantly abnormal measurement or evidence of pathology was detected
- half-life of the compound in humans [13]: between one and two days
